Reference: PubChem BioAssay (NCI)
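Exposure lasted 48 hours, with cells grown in 96-well plates and compounds tested at five concentrations. TGI: total growth inhibition.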

Columns and labels:
Experiment in all cases: NCI anticancer screen, dose series, 48 h
SK-MEL-2 melanoma = system: SK-MEL-2 melanoma
HOP-62 NSCLC = system: HOP-62 NSCLC
MOLT-4 leukemia = system: MOLT-4 leukemia
COLO 205 colon = system: COLO 205 colon
K-562 leukemia = system: K-562 leukemia
HCT-116 colon = system: HCT-116 colon
EKVX NSCLC = system: EKVX NSCLC
UACC-62 melanoma = system: UACC-62 melanoma
SR leukemia = system: SR leukemia
SK-OV-3 ovarian = system: SK-OV-3 ovarian
A498 renal = system: A498 renal
T-47D breast = system: T-47D breast
PC-3 prostate = system: PC-3 prostate
DU-145 prostate = system: DU-145 prostate
MDA-N = system: MDA-N
BT-549 breast = system: BT-549 breast

Row | Structure (SMILES) | TGI (SK-MEL-2 melanoma) | TGI (HOP-62 NSCLC) | TGI (MOLT-4 leukemia) | TGI (COLO 205 colon) | TGI (K-562 leukemia) | TGI (HCT-116 colon) | TGI (EKVX NSCLC) | TGI (UACC-62 melanoma) | TGI (SR leukemia) | TGI (SK-OV-3 ovarian) | TGI (A498 renal) | TGI (T-47D breast) | TGI (PC-3 prostate) | TGI (DU-145 prostate) | TGI (MDA-N) | TGI (BT-549 breast)
1 | [N-]=[N+]=NC(CBr)c1cn([C@H]2C[C@H](O)[C@@H](CO)O2)c(=O)[nH]c1=O (some centres undefined) | > 100 µM | > 100 µM | > 100 µM | > 100 µM | > 100 µM | > 100 µM | > 100 µM | > 100 µM | > 100 µM | > 100 µM | – | – | – | – | – | –
2 | COCCOCC(=O)N(CCn1ccc(NC(c2ccccc2)(c2ccccc2)c2ccccc2)nc1=O)CCn1cnc2nc(N)[nH]c(=O)c21 | > 100 µM | > 100 µM | > 100 µM | > 100 µM | > 100 µM | > 100 µM | > 100 µM | > 100 µM | > 100 µM | – | > 100 µM | – | – | – | – | –
3 | C/C=C/C(=O)N1C(=O)OC[C@@H]1c1ccccc1 | 36.9 µM | 41.1 µM | 47.3 µM | 39.1 µM | 56 µM | 38.1 µM | 35 µM | – | – | 33.3 µM | 45.7 µM | 36.8 µM | 37.5 µM | 37.4 µM | 43.8 µM | –
4 | COC(=O)[C@@]12OC[C@]34C([C@@H](O)C1O)[C@@]1(C)CC(=O)C(OC(=O)/C=C(/c5ccccc5)C(F)(F)F)=C(C)C1C[C@H]3OC(=O)[C@H](O)[C@H]42 (some centres undefined) | 27.4 µM | 46.1 µM | 26.9 µM | 30.2 µM | > 50 µM | > 50 µM | > 50 µM | 11.7 µM | 19.4 µM | > 50 µM | 2.26 µM | – | – | – | – | –
5 | COc1cc(O)c2c(=O)cc(C3(O)C=CC(=O)C=C3)oc2c1 | 2.66 µM | 0.486 µM | > 100 µM | 0.906 µM | 11.1 µM | – | 5.79 µM | 0.786 µM | 0.126 µM | 13.8 µM | 11.1 µM | – | 1.37 µM | 3.18 µM | – | 1.49 µM
6 | NC(=O)c1[nH]cnc1/N=N/SCC(N)C(=O)O (centres undefined) | > 100 µM | > 100 µM | – | > 100 µM | > 100 µM | > 100 µM | > 100 µM | > 100 µM | – | > 100 µM | > 100 µM | > 100 µM | > 100 µM | > 100 µM | – | > 100 µM
7 | O=c1[nH]n(Cc2ccccn2)c2ccc([N+](=O)[O-])cc12 | > 100 µM | > 100 µM | > 100 µM | > 100 µM | > 100 µM | > 100 µM | > 100 µM | > 100 µM | > 100 µM | – | > 100 µM | – | > 100 µM | > 100 µM | > 100 µM | –
8 | COc1cc2c(cc1OC)C(N)CC2=O (centres undefined) | > 100 µM | > 100 µM | > 100 µM | > 100 µM | > 100 µM | > 100 µM | > 100 µM | > 100 µM | > 100 µM | > 100 µM | > 100 µM | > 100 µM | > 100 µM | > 100 µM | – | > 100 µM
9 | CC(=O)Nc1ccc(C(=O)NN2C(=O)C(Cl)C2c2ccccc2O)cc1 (centres undefined) | > 100 µM | 41.6 µM | – | > 100 µM | > 100 µM | > 100 µM | > 100 µM | > 100 µM | – | > 100 µM | > 100 µM | – | – | – | – | –
10 | CN(C)c1ccc(/C=N\N2C(=O)c3ccccc3C2=O)cc1 | > 100 µM | > 100 µM | > 100 µM | – | > 100 µM | > 100 µM | > 100 µM | > 100 µM | > 100 µM | – | > 100 µM | – | – | – | – | –
11 | Cc1c2c(n(CCN(C)C)c1C)NN=C(C#N)S2(=O)=O | > 100 µM | > 100 µM | > 100 µM | > 100 µM | > 100 µM | > 100 µM | > 100 µM | > 100 µM | – | > 100 µM | – | > 100 µM | > 100 µM | > 100 µM | > 100 µM | –
12 | Cn1ncnc1CCc1ccccc1 | > 100 µM | > 100 µM | > 100 µM | > 100 µM | > 100 µM | > 100 µM | – | > 100 µM | > 100 µM | > 100 µM | > 100 µM | – | – | – | – | –
13 | COc1ccc(CNc2nc3c(NC(C)=O)cc(C(F)(F)F)cc3nc2-c2ccccc2)cc1OC | > 100 µM | > 100 µM | > 100 µM | > 100 µM | > 100 µM | > 100 µM | > 100 µM | > 100 µM | – | > 100 µM | > 100 µM | – | – | – | – | –
14 | Cc1nc(Nc2ccc([N+](=O)[O-])cc2)sc1C(/C=C/c1ccc(N(C)C)cc1)=N/NC(=O)c1ccccc1 | > 100 µM | > 100 µM | > 100 µM | > 100 µM | > 100 µM | > 100 µM | > 100 µM | 28.5 µM | > 100 µM | > 100 µM | – | – | – | – | – | –
15 | O=c1cc(-c2ccc(Cl)cc2)oc2cc(OCCCOc3ccc4c(=O)cc(-c5ccc(Cl)cc5)oc4c3)ccc12 | > 100 µM | > 100 µM | > 100 µM | > 100 µM | > 100 µM | > 100 µM | > 100 µM | > 100 µM | > 100 µM | > 100 µM | – | – | – | – | – | –
16 | C=CCN(C)CN(C)c1nc(N(C)C)nc(N(C)C)n1 | > 100 µM | > 100 µM | > 100 µM | > 100 µM | > 100 µM | > 100 µM | > 100 µM | > 100 µM | > 100 µM | > 100 µM | > 100 µM | – | – | – | – | –
17 | Cc1ccc(O)c(C(=O)CCCC(=O)c2cc(C)ccc2O)c1 | > 100 µM | > 100 µM | > 100 µM | > 100 µM | > 100 µM | – | > 100 µM | > 100 µM | – | > 100 µM | > 100 µM | – | – | – | – | –
18 | O=C(O)Cn1c(=O)[nH]c(=O)c2c1ncn2Cc1ccccc1 | > 100 µM | > 100 µM | > 100 µM | > 100 µM | > 100 µM | > 100 µM | > 100 µM | > 100 µM | > 100 µM | > 100 µM | > 100 µM | – | – | – | – | –
19 | NNc1[nH]c(=S)[nH]c1C(N)=O | > 100 µM | > 100 µM | > 100 µM | > 100 µM | – | > 100 µM | > 100 µM | > 100 µM | – | > 100 µM | > 100 µM | > 100 µM | > 100 µM | > 100 µM | – | > 100 µM
20 | COc1cc2c(cc1OC)C(=O)C(C1=C(SC(=N)N)C(=O)c3cc(OC)c(OC)cc31)C2 (centres undefined) | > 100 µM | > 100 µM | > 100 µM | > 100 µM | > 100 µM | > 100 µM | > 100 µM | > 100 µM | > 100 µM | > 100 µM | – | – | – | – | – | –
21 | CC(C)C(/C=C/c1ccc(Br)cc1)=N\NC(N)=O | > 100 µM | > 100 µM | > 100 µM | > 100 µM | > 100 µM | > 100 µM | > 100 µM | > 100 µM | > 100 µM | > 100 µM | – | – | – | – | – | –
22 | COC(=O)C(Cc1nc2ccc(Cl)cc2[nH]c1=O)/C(=N/NC(N)=O)C(=O)Nc1ccc(Cl)cc1 (centres undefined) | > 100 µM | > 100 µM | > 100 µM | > 100 µM | > 100 µM | > 100 µM | > 100 µM | > 100 µM | > 100 µM | > 100 µM | > 100 µM | – | – | – | – | –
23 | COc1ccc([C@@]23OC[C@@H]4[C@@H](OC[C@@H]42)c2cc(OC)c(OC)cc23)cc1OC | > 100 µM | > 100 µM | > 100 µM | > 100 µM | > 100 µM | > 100 µM | > 100 µM | > 100 µM | > 100 µM | > 100 µM | > 100 µM | > 100 µM | > 100 µM | > 100 µM | – | > 100 µM
24 | O=C(NO)C(=O)Nc1ccc(Cl)cc1[N+](=O)[O-] | > 100 µM | > 100 µM | > 100 µM | > 100 µM | > 100 µM | > 100 µM | > 100 µM | > 100 µM | > 100 µM | > 100 µM | > 100 µM | – | – | – | – | –
25 | CCOC(=O)c1ccc(-n2c(SCC)nc3sc(C)c(C)c3c2=O)cc1 | > 100 µM | > 100 µM | – | > 100 µM | > 100 µM | > 100 µM | > 100 µM | > 100 µM | > 100 µM | > 100 µM | > 100 µM | – | – | – | – | –
26 | NCCN1CC2CCC(CC2)C1 | > 10 µM | > 10 µM | > 10 µM | > 10 µM | > 10 µM | > 10 µM | > 10 µM | > 10 µM | > 10 µM | > 10 µM | > 10 µM | > 10 µM | > 10 µM | > 10 µM | – | –
27 | CC1(C)CC(=O)c2c(nc(SSc3nc4c(c(-c5ccccc5)c3C#N)C(=O)CC(C)(C)C4)c(C#N)c2-c2ccccc2)C1 | > 10 µM | > 10 µM | > 10 µM | > 10 µM | > 10 µM | > 10 µM | > 10 µM | – | – | > 10 µM | > 10 µM | > 10 µM | > 10 µM | > 10 µM | – | > 10 µM
28 | COc1ccc(/C(=N/NC(N)=O)C(c2ccc(OC)cc2)C2C(=O)Oc3ccccc32)cc1 (centres undefined) | – | > 100 µM | > 100 µM | > 100 µM | > 100 µM | > 100 µM | – | > 100 µM | > 100 µM | > 100 µM | – | – | – | – | – | –
29 | CC(=O)NNc1nc(C)c(C(/C=C/c2ccc(Cl)cc2)=N/NC(=O)C[N+](C)(C)C)s1 | > 100 µM | – | > 100 µM | > 100 µM | > 100 µM | > 100 µM | > 100 µM | > 100 µM | – | > 100 µM | > 100 µM | – | – | – | – | –
